From patent US9708310B2, “Phenanthroindolizidine and phenanthroquinolizidine alkaloid having a hydroxyl group on the phenanthrene ring thereof, preparation method and use thereof” (CHINA MEDICAL UNIVERSITY, priority 2015, dated 2017)
In brackets after ≈: the same amount, converted by molar mass.

How the values were obtained:
rats = conditions: high doses; cited from earlier work
[1] = cited from earlier work
[2] = early clinical trial; cited from earlier work
[3] = predicted by PreADMET; cited from earlier work
[4] = tested on: breast carcinoma (MCF-7) cells; test: Cell viability (MTT) assay, MCF-7; assay type: cell-based, human
Description: (§1) 8. Typical Procedure for Cell Viability Assay
(§2) The breast carcinoma (MCF-7), lung carcinoma (H1299), and prostate carcinoma (DU145) cells were first plated at a density of 5×10^3 cells per well in 96-well plates for overnight and then treated with different concentrations of these compounds. After 48 h of treatment, 100 µL of MTT solution was added to each well and the cells were incubated for 1 h at 37° C. Then, the MTT solution was completely removed and […] of DMSO was added to solubilize the MTT formazan crystals. Finally, the absorbance was measured using a MQX200R microplate reader (BioTek, VT, USA) at a wavelength of 550 nm.

[5] = tested on: lung carcinoma (H1299) cells; test: Cell viability (MTT) assay, H1299; assay type: cell-based, human
Description: as §1, §2

[6] = tested on: prostate carcinoma (DU145) cells; test: Cell viability (MTT) assay, DU145; assay type: cell-based, human
Description: as §1, §2

[7] = tested on: MCF-7, H1299, DU145 cancer cell lines; assay type: cell-based, human
Description: as §2
The cytotoxic activities of 18 compounds 4a-i and 5a-i were evaluated against three human cancer cell lines, breast carcinoma (MCF-7), lung carcinoma (H1299), and prostate carcinoma (DU145), using tylophorine (4i) and 7-methoxycryptopleurine (5i) for comparison. […] In the phenanthroindolizidine series, the IC50 ratio of compounds 4a-h to tylophorine (4i) followed the order: 4a˜4h˜4e>4f>>4b˜[…]>4d>4g; however, in the phenanthroquinolizidine series, the IC50 ratio of compounds 5a-h to 7-methoxycryptopleurine (5i) followed the order: 5c˜5a˜5h˜5b>>5f˜5d>5e>5g. […] Based on the SAR results, a more polar phenanthroquinolizidine, 7-hydroxycryptopleurine (20), was designed and synthesized to decrease the CNS toxicity and increase the water solubility. […]

[8] = Solubility in the dosing solvent system; conditions: 2.5% DMSO, 2.5% EtOH, 5% Cremophor EL, and 90% normal saline
[9] = tested on: normal human lung fibroblast cell line, MRC-5; test: Cytotoxicity against normal lung fibroblasts MRC-5; assay type: cell-based; conditions: MRC5
[10] = tested on: cyclin D1, CDK4, cyclin E, CDK2, cyclin B1, and CDK1; test: Western blot of H1299 cell cycle associated protein; assay type: cell-based, human; conditions: H1299 cells, 7, 14, and 21 nM, 12, 24, and 48 h
Description: 9. The Effect of Compound 20 on H1299 Cell Cycle Associated Protein
9.1 Western Blot Analysis
H1299 cells were first seeded at a density of 3×10^5 cells per well in six-well plates overnight and then treated with compound 20 at three different concentrations (7, 14, and 21 nM) for 12, 24, and 48 h. The cells were washed with PBS buffer and lysed in ice-cold RIPA buffer for 30 min. The supernatant was collected and centrifuged at 15,000 rpm at 4° C. for 30 min. The protein concentration was measured with a Bio-Rad assay using a MQX200R microplate reader (BioTek, VT, USA). The cell lysates were separated by 10% SDS-PAGE and electrophoretically transferred onto polyvinylidene difluoride (PVDF) membranes (Millipore, Bedford, Mass.). After several washes, the membranes were blocked with 5% skim milk in TBST (tris-buffered saline containing 0.1% Tween-20) at room temperature for 1 h and incubated with different primary antibodies against cyclin D1, CDK4, cyclin E, CDK2, cyclin B1, and CDK1 (1:2000 dilution) at 4° C. for overnight. […] After washing three times in TBST, the bound antibody was visualized using ECL Western Blotting Reagent (PerkinElmer, Boston), and chemiluminescence was detected using a Fuji Medical X-ray film (Tokyo, Japan).
All the data were expressed as means±SEM for three replicate experiments. […]

female athymic nude mice = test: Rotarod test for motor coordination (neurotoxicity); assay type: in vivo; conditions: i.p., 20 at 10 mg/kg vs 5i at 0.08 mg/kg, 15 administrations, 5 rpm, three consecutive days
Text: 10. Rotarod Test for Motor Coordination
The protocol of rotarod test was based on those described in the literature [Y. Z. Lee, C. W Yang, H. Y. Hsu, Y. Q. Qiu, T. K. Yeh, H. Y. Chang, et al., J. Med. Chem. 2012, 55, 10363-10377] with slight modifications. Eight week-old female athymic nude mice were used. All the animal experiments followed ethical standards, and the protocols have been reviewed and approved by the Animal Care and Use Committee of China Medical University (IACUC approval no: 102-235-N). The mice were randomly divided into two groups (n=3) and treated with compound 20 (10 mg/kg) or 7-methoxycryptopleurine 5i (0.08 mg/kg) intraperitoneally. The compounds were dissolved in a mixture of 2.5% DMSO, 2.5% EtOH, 5% Cremophor EL, and 90% normal saline. Each group was administered once daily, five days per week for 15 times in total. After 15 administrations of the compounds, the mice were placed on the rotarod apparatus for training (day 1) and test (days 2-4) with the rod set in motion at a constant speed of 5 rpm. The latency time to fall from the rotating rod was recorded for a maximum of 180 s.

physchem = conditions: aqueous with cosolvent or surfactant or cyclodextrin
[11] = Homo sapiens, MCF7, 48 h treatment
[12] = Homo sapiens, NCI-H1299, 48 h treatment
[13] = Homo sapiens, DU-145, 48 h treatment

Molecule	IC50 [4, 11]	IC50 [5, 12]	IC50 [6, 13]	melting point	IC50 ([4]; 48 h treatment)	IC50 ([5]; 48 h treatment)	IC50 ([6]; 48 h treatment)	other results
COc1cc2c3c(c4cc(OC)c(OC)cc4c2cc1OC)CN1CCC[C@@H]1C3 [Compound 1, (R)-tylophorine]								CNS side effects (rats): caused central nervous system (CNS) side effects; water solubility [1]: low
COc1cc2c3c(c4ccc(OC)c(OC)c4c2cc1OC)CN1CCC[C@@H]1C3 [Compound 2, (R)-tylocrebrine]								clinical trial outcome [2]: failed in the early clinical trial owing to CNS toxicity
COc1ccc2c3c(c4cc(OC)c(OC)cc4c2c1)C[C@H]1C[C@H](O)CCN1C3 [Compound 3]								BBB penetration [3]: significantly reduced the BBB penetration
COc1cc2c3c(c4c(OC)c(OC)c(OC)cc4c2cc1OC)CC1CCCN1C3 (centres unmarked) [Compound 4a, 1,2,3,6,7-Pentamethoxy-11,12,12a,13-tetrahydro-10H-9a-azacyclopenta[b]triphenylene]	> 2500 nM	> 2500 nM	> 2500 nM	225 to 226 °C				
COc1ccc2c3c(c4cc(OC)c(OC)cc4c2c1)CN1CCC[C@H]1C3 [Compound 4b, Deoxypergularinine]					305 nM	235 nM	176 nM	
COc1ccc2c(c1)c1c(c3cc(OC)c(OC)cc32)CN2CCCC2C1 (centres unmarked) [Compound 4c, 2,6,7-Trimethoxy-11,12,12a,13-tetrahydro-10H-9a-azacyclopenta[b]triphenylene]	2480 nM	> 2500 nM	2150 nM	187 to 189 °C				
COc1cc2c3c(c4cc(OC)c(OC)c(OC)c4c2cc1OC)CC1CCCN1C3 (centres unmarked) [Compound 4d, 4-Methoxytylophorine]					61.2 nM	54.1 nM	58.8 nM	
COc1cc2c3c(c4cc(OC)c(OC)c(OC)c4c2cc1OC)CN1CCCC1C3 (centres unmarked) [Compound 4e, 2,3,5,6,7-Pentamethoxy-11,12,12a,13-tetrahydro-10H-9a-azacyclopenta[b]triphenylene]	224 nM	165 nM	150 nM	169 to 170 °C				
COc1ccc2c3c(c4cc(OC)c(OC)cc4c2c1)C[C@H]1CCCN1C3 [Compound 4g, Antofine]					42.4 nM	32.5 nM	30.3 nM	
COc1cc2c3c(c4c(OC)c(OC)c(OC)cc4c2cc1OC)CN1CCCC1C3 (centres unmarked) [Compound 4h, 2,3,6,7,8-Pentamethoxy-11,12,12a,13-tetrahydro-10H-9a-azacyclopenta[b]triphenylene]	> 2500 nM	> 2500 nM	> 2500 nM	231 °C (dec.)				
COc1cc2c3c(c4cc(OC)c(OC)cc4c2cc1OC)CN1CCC[C@@H]1C3 [Compound 4i, Tylophorine]					41.1 nM	30.9 nM	28.3 nM	
COc1cc2c3c(c4c(OC)c(OC)c(OC)cc4c2cc1OC)CC1CCCCN1C3 (centres unmarked) [Compound 5a, 1,2,3,6,7-Pentamethoxy-10,11,12,13,13a,14-hexahydro-9H-9a-azabenzo[b]triphenylene]	276 nM	252 nM	272 nM	191 to 192 °C				
COc1ccc2c3c(c4cc(OC)c(OC)cc4c2c1)CN1CCCCC1C3 (centres unmarked) [Compound 5b, Boehmeriasin A]					272 nM	211 nM	184 nM	
COc1ccc2c(c1)c1c(c3cc(OC)c(OC)cc32)CN2CCCCC2C1 (centres unmarked) [Compound 5c, 2,6,7-Trimethoxy-10,11,12,13,13a,14-hexahydro-9H-9a-azabenzo[b]triphenylene]	392 nM	314 nM	279 nM	182 to 184 °C				
COc1cc2c3c(c4cc(OC)c(OC)c(OC)c4c2cc1OC)CC1CCCCN1C3 (centres unmarked) [Compound 5d, 4,7-Dimethoxycryptoplerine]					61.9 nM	54.4 nM	35.7 nM	
COc1cc2c3c(c4cc(OC)c(OC)c(OC)c4c2cc1OC)CN1CCCCC1C3 (centres unmarked) [Compound 5e, 2,3,5,6,7-Pentamethoxy-10,11,12,13,13a,14-hexahydro-9H-9a-azabenzo[b]triphenylene]	19.3 nM	27.6 nM	23.8 nM	166 to 167 °C				
COc1ccc2c(c1)c1c(c3cc(OC)c(OC)cc32)CC2CCCCN2C1 (centres unmarked) [Compound 5f, 2,3,7-Trimethoxy-10,11,12,13,13a,14-hexahydro-9H-9a-azabenzo[b]triphenylene]	68.7 nM	57.3 nM	41.8 nM	156 to 158 °C				fold increase in the cytotoxicity relative to compound 4f [7]: 28-36 fold
COc1ccc2c3c(c4cc(OC)c(OC)cc4c2c1)C[C@H]1CCCCN1C3 [Compound 5g, Cryptopleurine]					11.3 nM	9 nM	4.6 nM	
COc1cc2c3c(c4c(OC)c(OC)c(OC)cc4c2cc1OC)CN1CCCCC1C3 (centres unmarked) [Compound 5h, 2,3,6,7,8-Pentamethoxy-10,11,12,13,13a,14-hexahydro-9H-9a-azabenzo[b]triphenylene]	277 nM	232 nM	215 nM	211 °C (dec.)				
COc1cc2c3c(c4cc(OC)c(OC)cc4c2cc1OC)CN1CCCCC1C3 (centres unmarked) [Compound 5i, 7-Methoxycryptopleurine]					10.7 nM	7.1 nM	4.5 nM	solubility in the solvent system [8]: less than 0.08 mg/mL
COc1cc2c(cc1O)c1c(c3cc(OC)c(OC)cc32)CC2CCCCN2C1 (centres unmarked) [Compound 20, 7-Hydroxy-2,3,6-trimethoxy-10,11,12,13,13a,14-hexahydro-9H-9a-azabenzo[b]triphenylene]	6.4 nM	5.2 nM	4.4 nM	114 to 115 °C				IC50 [9]: 26 nM; cell cycle associated protein expression [10]: decrease in cyclin D1-cdk4, cyclin E-cdk2, and cyclin B1-cdk1 expression; motor coordination (neurotoxicity), rotarod (female athymic nude mice): better motor coordination than the compound 5i-treated group; solubility (physchem): ~1300 µg/mL (≈ 3.3 mM)
Desmethoxytylophorine [Compound 4f]					1910 nM	2020 nM	1510 nM	
